Reference: publication PMC7191050 (Molecules and Cells, 2020)

Columns and labels:
Format in all cases: binding
[1] = target: T1, Ca IleRS mutant (isoleucyl-tRNA synthetase) (Candida albicans, UniProt Q59RI1, I601F/T599H); assay: microscale thermophoresis
T1 sequence (Q59RI1 1-1088 T599H/I601F): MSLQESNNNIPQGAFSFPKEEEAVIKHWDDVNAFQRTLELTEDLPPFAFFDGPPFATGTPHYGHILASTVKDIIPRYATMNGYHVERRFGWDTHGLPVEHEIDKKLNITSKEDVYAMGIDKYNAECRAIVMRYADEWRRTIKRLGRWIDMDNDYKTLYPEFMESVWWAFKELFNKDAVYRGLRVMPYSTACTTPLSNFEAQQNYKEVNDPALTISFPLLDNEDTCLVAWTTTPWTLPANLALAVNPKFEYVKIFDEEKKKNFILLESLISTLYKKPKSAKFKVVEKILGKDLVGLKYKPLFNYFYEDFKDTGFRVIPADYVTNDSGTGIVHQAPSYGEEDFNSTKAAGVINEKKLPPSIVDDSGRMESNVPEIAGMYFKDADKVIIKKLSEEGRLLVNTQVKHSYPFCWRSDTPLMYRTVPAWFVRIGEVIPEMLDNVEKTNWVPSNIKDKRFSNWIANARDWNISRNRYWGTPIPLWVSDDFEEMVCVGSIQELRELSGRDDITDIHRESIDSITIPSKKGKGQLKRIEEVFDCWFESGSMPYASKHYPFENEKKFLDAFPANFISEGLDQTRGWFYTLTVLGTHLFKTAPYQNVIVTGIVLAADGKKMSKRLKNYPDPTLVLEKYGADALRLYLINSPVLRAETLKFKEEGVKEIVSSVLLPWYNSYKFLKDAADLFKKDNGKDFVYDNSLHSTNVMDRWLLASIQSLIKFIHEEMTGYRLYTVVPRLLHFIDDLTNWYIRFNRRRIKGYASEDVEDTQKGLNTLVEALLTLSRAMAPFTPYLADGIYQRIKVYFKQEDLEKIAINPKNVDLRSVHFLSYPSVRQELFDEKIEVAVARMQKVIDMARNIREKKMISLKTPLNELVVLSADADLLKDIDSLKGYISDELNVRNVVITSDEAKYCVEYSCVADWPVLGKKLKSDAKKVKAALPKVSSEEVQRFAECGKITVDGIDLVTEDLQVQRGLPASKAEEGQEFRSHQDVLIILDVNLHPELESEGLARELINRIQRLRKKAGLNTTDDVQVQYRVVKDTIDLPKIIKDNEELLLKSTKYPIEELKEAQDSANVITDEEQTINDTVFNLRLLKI

[2] = target: T2, Ca IleRS (isoleucyl-tRNA synthetase) (Candida albicans, UniProt Q59RI1); assay: microscale thermophoresis
T2 sequence (Q59RI1 1-1088): T1 sequence (Q59RI1 1-1088 T599H/I601F)

[3] = target: T3, Ca IleRS (isoleucyl-tRNA synthetase) (Candida albicans, UniProt Q59RI1); assay: X-ray crystal structure at […] Å
T3 sequence (Q59RI1 1-856): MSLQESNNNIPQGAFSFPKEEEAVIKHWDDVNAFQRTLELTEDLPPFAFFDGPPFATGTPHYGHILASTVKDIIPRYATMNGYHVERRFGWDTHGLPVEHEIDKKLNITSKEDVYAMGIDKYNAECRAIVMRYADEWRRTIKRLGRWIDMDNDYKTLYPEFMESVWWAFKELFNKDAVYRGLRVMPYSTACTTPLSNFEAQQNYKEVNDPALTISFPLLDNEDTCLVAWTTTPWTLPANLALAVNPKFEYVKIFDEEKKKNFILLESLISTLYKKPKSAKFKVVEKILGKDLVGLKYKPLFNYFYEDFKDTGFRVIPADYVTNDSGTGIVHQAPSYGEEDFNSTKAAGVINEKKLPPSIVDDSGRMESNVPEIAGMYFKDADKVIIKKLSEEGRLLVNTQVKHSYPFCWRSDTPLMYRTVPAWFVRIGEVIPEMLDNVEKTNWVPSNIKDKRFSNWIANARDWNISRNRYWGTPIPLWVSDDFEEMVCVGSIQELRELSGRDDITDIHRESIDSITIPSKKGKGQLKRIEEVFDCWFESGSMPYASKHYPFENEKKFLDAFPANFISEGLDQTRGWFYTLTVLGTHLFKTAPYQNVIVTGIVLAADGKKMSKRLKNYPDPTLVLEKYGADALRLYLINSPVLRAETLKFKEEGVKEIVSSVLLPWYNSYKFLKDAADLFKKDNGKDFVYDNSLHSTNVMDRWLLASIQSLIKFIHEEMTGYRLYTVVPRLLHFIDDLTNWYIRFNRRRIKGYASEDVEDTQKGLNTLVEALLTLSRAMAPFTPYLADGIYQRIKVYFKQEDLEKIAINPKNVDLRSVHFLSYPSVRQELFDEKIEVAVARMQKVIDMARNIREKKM

SMILES	Kd [1] [µM]	Kd [2] [µM]	X-ray crystal structure at 2.9 Å (ligand co-purified, none added) [3]
C/C(=C\C(=O)OCCCCCCCCC(=O)O)C[C@@H]1OC[C@H](C[C@@H]2O[C@H]2[C@@H](C)[C@H](C)O)[C@@H](O)[C@H]1O [mupirocin]	103 to 111	103 to 111	
CC[C@H](C)[C@H](N)C(=O)OP(=O)(O)OC[C@H]1O[C@@H](n2cnc3c(N)ncnc32)[C@H](O)[C@@H]1O [Ile-AMP]			The crystal structure of Ca IleRS revealed clear electron density for Ile-AMP at the synthetic active site
